We go through five compounds from US20210353585A1, “METHODS AND COMPOSITIONS FOR TREATING LAMINOPATHIES AFFECTING SKELETAL OR CARDIAC MUSCLE” (CORNELL UNIVERSITY, priority 2018, published 2021).

Assay [1] has as its system Lmna WT myofibers. The experiment in a line: DNA damage by γH2AX foci per nucleus, Lmna WT. Type of assay: cell-based, mouse. The settings on record: for DNA damage (γH2AX foci per nucleus): Lmna WT cells, phleomycin with DNA-PK+ATM inhibition vs phleomycin alone; for DNA damage (γH2AX foci): wild-type myofibers, phleomycin 20 μg/ml pulses combined with NU7441 (2 μM) and/or KU55933 (2 μM), comparable to untreated Lmna KO. On the procedure: (§1) Pharmacological treatments. For preliminary experiments, myoblasts were differentiated using the standard protocol and treated with pharmacological treatments starting at day 5 of differentiation. For chromatin protrusion studies, paclitaxel was administered to differentiated myotubes in two 24 hours bursts at day 4 and day 6-post differentiation with a 24 hour recovery in between. Myotubes were then fixed in 4% PFA at day 7 and stained with anti-lamin B and DAPI in order to quantify the percentage of myonuclei with chromatin protrusions. For long term studies using the cGAS reporter, myotubes were treated with 10 nM of paclitaxel starting at day 5 and then media was refreshed every day. […] For DNA damage induction and inhibitor experiments, cells were treated with 20 μg/ml of phleomycin for a two-hour pulse on Day 3, 4, and 5 of differentiation. Concurrently, cells were treated with NU7441 (2 μM), KU55933 (2 μM) starting at day 2 of differentiation through day 10 of differentiation. For induction of DN-KASH and DN-KASHext, cells were treated with 1 μM doxycycline.
Immunofluorescence staining of mouse cells and tissues. Cells were fixed in pre-warmed 4% PFA at the appropriate time point(s) and washed with PBS. Cells were blocked and permeabilized with a solution of 3% BSA, 0.1% Triton-X 100 and 0.1% Tween (Sigma) for 1 hour at room temperature. Cells were stained with primary antibodies diluted in blocking solution according to Table 4 at 4° C. overnight. Samples were washed with PBS and incubated for 1 hour at room temperature with 1:250 dilution of AlexaFluor antibodies (Invitrogen) and 1:1000 DAPI (Sigma). Single muscle fibers were stained using the same procedure in Eppendorf tube baskets with an increase in blocking solution Triton-X concentration to 0.25%.
Image analysis. Image sequences were analyzed using ZEN (Zeiss), ImageJ, or MATLAB (Mathworks) using only linear adjustments uniformly applied to the entire image region. Region of interest intensities were extracted using ZEN or ImageJ. To quantify cleaved caspase-3 (i.e. active) area and myofiber health, maximum intensity protections were generated, which were then blinded to the observer. Cleaved caspase-3 area was calculated by thresholding of the caspase-3 and myosin heavy chain fluorescent signal and expressing the cleaved caspase-3 signal relative to the myosin heavy chain signal. Myofiber contractions were scored based on a minimum of 6 random fields of view per replicate using a blinded analysis according to the scales provided in FIGS. 4A-4B. […] Protrusions lengths were both counted and measured by the presence of DAPI signal beyond the lamin B rim of the nucleus. Aspect ratio was quantified based on a thresholded lamin B rim to avoid the confounding factor of the DNA protrusions outside the body of the nucleus. Nuclear rupture was detected by an increase of the cytoplasmic NLS-GFP signal, or the localization of cGAS-mCherry to the nucleus. For better visualization of NLS-GFP cells many of the fluorescent single color image sequences were inverted. […] DNA damage was determined by counting H2AX foci and then binned based on foci number. If damage was so severe that individual foci could not be counted, these nuclei were placed in the >25 foci category. For Hsp90 quantification, average nuclear Hsp90 fluorescence intensity was determined from a single mid-nucleus z-plane image and normalized to the cytoplasmic intensity at two points immediately adjacent to the nucleus.

The test system of assay [2] is Lmna KO myofibers. The experiment in a line: Cell viability MTT assay, Lmna KO. Type of assay: cell-based, mouse. The settings on record: phleomycin alone or in combination with NU7441 and/or KU55933. On the procedure:
as §1
(§2) MTT assay. Myoblasts, seeded in a 96-well plate and differentiated as previously described for 0, 5, or 10 days, were assayed for cell viability according to the manufacturer's instructions (Promega, CellTiter 96 Non-Radioactive Cell Proliferation Assay). Fresh differentiation media was added two hours prior to the addition of 15 μL MTT 3-(4,5-dimethylthiazol-2-yl)-2,5-diphenyltetrazolium bromide dye. After incubation for 3 hours in MTT dye, 100 uL of Stop Solution was added to solubilize the formazan product (appears purple). Following overnight incubation at 37° C. and 5% CO2, the absorbance of each well (measured at 590 nm) was analyzed using a microplate reader.

The test system of assay [3] is Lmna WT myofibers. In words: Cell viability MTT assay, Lmna WT. Type of assay: cell-based, mouse. Particulars: wild-type myofibers; phleomycin 20 μg/ml pulses combined with NU7441 (2 μM) and/or KU55933 (2 μM); comparable to untreated Lmna KO. Here is the method: as §1, §2
Another assay deals with chick cardiac tissue. The settings on record: Cho et al. 2019; cited from earlier work.
Another assay concerns Lmna H222P mice. Particulars: Macquart et al. 2018; cited from earlier work.
For assay [4], the system named is Lmna KO myofibers. In words: Nuclear envelope rupture, cGAS-mCherry reporter foci. Particulars: paclitaxel 10 nM starting day 5, vs DMSO. Type of assay: cell-based, mouse.
Description: Each of the mutant myoblast lines were stably modified with lentiviral vectors to express the nuclear rupture reporter NLS-GFP (pCDH-CMV-NLS-copGFP-EF1-blastiS) and cGAS-mCherry (pCDH-CMV-eGAs^E225A/D227A-mCherry2-EF1-blastiS). cGAS is a cytosolic DNA binding protein; a cGAS mutant (E225A/D227A) with abolished enzyme activity and interferon production, but that still binds DNA (Civril et al., “Structural Mechanism of Cytosolic DNA Sensing by cGAS,” Nature 498:332-337 (2013), which is hereby incorporated by reference in its entirety) and serves as a nuclear envelope rupture reporter (Denais et al., “Nuclear Envelope Rupture and Repair During Cancer Cell Migration,” Science 352:353-358 (2016), which is hereby incorporated by reference in its entirety) was used.
Extended imaging using incubator microscope. […] Resulting images were analyzed using the Incucyte software, which performs fluorescence background subtraction using a top hat method and then subsequent thresholding. cGAS-mCherry cells were thresholded and then analyzed for increase in fluorescent foci over time to track the rate of increase in nuclear envelope rupture or damage. […]
For assay [5], the system named is Lmna KO myofibers. In words: Quantification of myonuclei with chromatin protrusions. Type of assay: cell-based, mouse. The settings on record: paclitaxel 50 nM starting day 4, read day 7, vs DMSO. On the procedure:
Pharmacological treatments. For preliminary experiments, myoblasts were differentiated using the standard protocol and treated with pharmacological treatments starting at day 5 of differentiation. For chromatin protrusion studies, paclitaxel was administered to differentiated myotubes in two 24 hours bursts at day 4 and day 6-post differentiation with a 24 hour recovery in between. Myotubes were then fixed in 4% PFA at day 7 and stained with anti-lamin B and DAPI in order to quantify the percentage of myonuclei with chromatin protrusions. For long term studies using the cGAS reporter, myotubes were treated with 10 nM of paclitaxel starting at day 5 and then media was refreshed every day. […]
Image analysis. Image sequences were analyzed using ZEN (Zeiss), ImageJ, or MATLAB (Mathworks) using only linear adjustments uniformly applied to the entire image region. […] To quantify cleaved caspase-3 (i.e. active) area and myofiber health, maximum intensity protections were generated, which were then blinded to the observer. Cleaved caspase-3 area was calculated by thresholding of the caspase-3 and myosin heavy chain fluorescent signal and expressing the cleaved caspase-3 signal relative to the myosin heavy chain signal. Myofiber contractions were scored based on a minimum of 6 random fields of view per replicate using a blinded analysis according to the scales provided in FIGS. 4A-4B. […]

Assay [6] deals with Lmna KO myofibers. In words: Microharpoon assay of nuclear deformation. The settings on record: Lmna KO myotubes, 50 nM paclitaxel for 24 hours vs DMSO. Type of assay: cell-based, mouse. On the procedure: For the microharpoon studies, myoblasts were seeded in 35 mm glass bottom dishes and differentiated as previously described, except without the addition of a Matrigel top coat to allow microharpoon access. A Sutter P-97 micropipette puller was used to create microharpoons from borosilicate glass rods (Sutter; OD: 1.0 mm, ID: 0.78, 10 cm length) with tip diameters of ≈1 μm. Day 4 myotubes (Lmna KO and wild-type) were treated for 24 hours with either 50 nM Paclitaxel or the corresponding 0.1% DMSO. The following day, the microharpoon assay was performed as described in Fedorchak et al., “Cell Microharpooning to Study Nucleo-Cytoskeletal Coupling,” Methods Mol. Biol. 1411:241-254 (2016), which is hereby incorproated by reference in its entirety, with slight modifications to the pull parameters to accommodate myotubes. The microharpoon was inserted ≈5-7 μm from the edge of the nucleus and pulled 15 μm at a rate of 1 μm/s. Pull direction was always orthogonal to the long axis of the myofiber. Images were acquired at 40× (+1.6×) every 5 seconds. Nuclear strain and centroid displacement were calculated using a custom-written MATLAB program. […]

For the compound `O=c1cc(N2CCOCC2)oc2c(-c3cccc4c3sc3ccccc34)cccc12` [NU7441], in the assay on Lmna WT myofibers [1], the “DNA damage (γH2AX foci per nucleus)” value is given as “significant increase in DNA damage”. Besides, the “DNA damage (γH2AX foci)” value with Lmna WT myofibers [1] is listed as “accumulation of DNA damage”. The “myofiber viability (MTT)” value was “did not further reduce viability” in the assay on Lmna KO myofibers [2] and “loss of viability” in the assay on Lmna WT myofibers [3].
As for `Cc1ccc2c(c1)C(=O)C1(O)CCN(c3ccccc3)C1=N2` (stereo not shown) [blebbistatin], the nuclear envelope rupture entry in the assay on chick cardiac tissue is given as “rescued”.
Regarding `O=c1cc(-c2cccc3c2Sc2ccccc2S3)oc(N2CCOCC2)c1` [KU55933], in the assay on Lmna WT myofibers [1], the “DNA damage (γH2AX foci per nucleus)” value is given as “significant increase in DNA damage” and the “DNA damage (γH2AX foci)” value was “accumulation of DNA damage”. Moreover, the “myofiber viability (MTT)” value in the assay with Lmna KO myofibers [2] was “did not further reduce viability”. Besides, in the assay with Lmna WT myofibers [3], the “myofiber viability (MTT)” value is “loss of viability”.
For the compound `CC(=O)O[C@H]1C(=O)[C@@]2(C)[C@H]([C@H](OC(=O)c3ccccc3)[C@]3(O)C[C@H](OC(=O)[C@H](O)[C@@H](NC(=O)c4ccccc4)c4ccccc4)C(C)=C1C3(C)C)[C@]1(OC(C)=O)CO[C@@H]1C[C@@H]2O` [paclitaxel], the cardiac conduction defects result with Lmna H222P mice is “improve cardiac conduction defects”. For the same compound, in the assay on Lmna KO myofibers [4], the “incidence of nuclear envelope rupture (cGAS-mCherry foci)” value is recorded as “significantly reduced”. For the same compound, in the assay with Lmna KO myofibers [5], the “percentage of nuclei with chromatin protrusions” value is reported as “significantly reduced the percentage of nuclei with chromatin protrusions”. Besides, in the assay on Lmna KO myofibers [6], the “nuclear deformation in response to cytoplasmic force application (nuclear strain)” value is on record as “significantly reduced nuclear deformation”.
As to phleomycin, the “DNA damage (γH2AX foci)” value in the assay on Lmna WT myofibers [1] is recorded as “accumulation of DNA damage”. Also, the results for the “myofiber viability (MTT)” value in the assay on Lmna KO myofibers [2] and in the assay with Lmna WT myofibers [3] were “did not further reduce viability” and “loss of viability”, respectively.
